Tests used:
[1] = molecular target: Tyrosine-protein kinase SYK (Homo sapiens) (UniProt P43405); assay: Inhibition of SYK (unknown origin) assessed as remaining activity at 1 uM by Kinome scan method relative to control
[2] = molecular target: Calcium/calmodulin-dependent protein kinase kinase 1 (Homo sapiens) (UniProt Q8N5S9); assay: Inhibition of CAMKK1 (unknown origin) assessed as remaining activity at 1 uM by Kinome scan method relative to control
[3] = tested on: Receptor-type tyrosine-protein kinase FLT3 (Homo sapiens), P36888 [D835H]; assay: Inhibition of FLT3 D835H mutant (unknown origin) assessed as remaining activity at 1 uM by Kinome scan method relative to control
[4] = molecular target: Tyrosine-protein kinase BTK (Homo sapiens) (UniProt Q06187); assay: Inhibition of BTK (unknown origin) assessed as remaining activity at 1 uM by Kinome scan method relative to control
Tyrosine-protein kinase BTK (Homo sapiens), sequence (Q06187 whole entry): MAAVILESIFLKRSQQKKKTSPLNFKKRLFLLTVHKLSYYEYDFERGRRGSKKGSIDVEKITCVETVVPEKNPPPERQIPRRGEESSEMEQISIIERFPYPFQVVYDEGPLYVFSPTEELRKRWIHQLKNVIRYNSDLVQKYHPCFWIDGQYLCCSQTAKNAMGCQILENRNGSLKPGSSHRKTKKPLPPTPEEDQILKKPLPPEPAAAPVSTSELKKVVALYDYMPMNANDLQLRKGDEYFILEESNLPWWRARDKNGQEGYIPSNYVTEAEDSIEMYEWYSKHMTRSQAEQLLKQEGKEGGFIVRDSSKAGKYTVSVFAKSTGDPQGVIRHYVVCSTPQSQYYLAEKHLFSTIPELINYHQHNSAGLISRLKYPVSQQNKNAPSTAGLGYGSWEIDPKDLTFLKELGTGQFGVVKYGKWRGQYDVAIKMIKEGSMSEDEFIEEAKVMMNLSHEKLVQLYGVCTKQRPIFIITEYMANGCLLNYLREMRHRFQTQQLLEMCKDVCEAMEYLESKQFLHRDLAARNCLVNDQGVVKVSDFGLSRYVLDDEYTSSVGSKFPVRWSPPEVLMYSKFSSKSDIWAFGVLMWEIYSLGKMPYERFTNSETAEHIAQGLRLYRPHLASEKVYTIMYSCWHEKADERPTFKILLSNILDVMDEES

[5] = molecular target: Serine/threonine-protein kinase MRCK alpha (Homo sapiens) (UniProt Q5VT25); assay: Inhibition of human CDC42BPA assessed as residual activity at 1 uM using RB-S6P as substrate in presence of 33P-ATP by ProQinase assay relative to control
[6] = molecular target: Focal adhesion kinase 1 (Homo sapiens) (UniProt Q05397); assay: Inhibition of FAK (unknown origin) assessed as remaining activity at 1 uM by Kinome scan method relative to control
[7] = tested on: Proto-oncogene tyrosine-protein kinase receptor Ret (Homo sapiens), P07949 [M918T]; assay: Inhibition of RET M918T (unknown origin) assessed as remaining activity at 1 uM by Kinome scan method relative to control
Proto-oncogene tyrosine-protein kinase receptor Ret (Homo sapiens), P07949 [M918T], sequence (P07949 whole entry M918T): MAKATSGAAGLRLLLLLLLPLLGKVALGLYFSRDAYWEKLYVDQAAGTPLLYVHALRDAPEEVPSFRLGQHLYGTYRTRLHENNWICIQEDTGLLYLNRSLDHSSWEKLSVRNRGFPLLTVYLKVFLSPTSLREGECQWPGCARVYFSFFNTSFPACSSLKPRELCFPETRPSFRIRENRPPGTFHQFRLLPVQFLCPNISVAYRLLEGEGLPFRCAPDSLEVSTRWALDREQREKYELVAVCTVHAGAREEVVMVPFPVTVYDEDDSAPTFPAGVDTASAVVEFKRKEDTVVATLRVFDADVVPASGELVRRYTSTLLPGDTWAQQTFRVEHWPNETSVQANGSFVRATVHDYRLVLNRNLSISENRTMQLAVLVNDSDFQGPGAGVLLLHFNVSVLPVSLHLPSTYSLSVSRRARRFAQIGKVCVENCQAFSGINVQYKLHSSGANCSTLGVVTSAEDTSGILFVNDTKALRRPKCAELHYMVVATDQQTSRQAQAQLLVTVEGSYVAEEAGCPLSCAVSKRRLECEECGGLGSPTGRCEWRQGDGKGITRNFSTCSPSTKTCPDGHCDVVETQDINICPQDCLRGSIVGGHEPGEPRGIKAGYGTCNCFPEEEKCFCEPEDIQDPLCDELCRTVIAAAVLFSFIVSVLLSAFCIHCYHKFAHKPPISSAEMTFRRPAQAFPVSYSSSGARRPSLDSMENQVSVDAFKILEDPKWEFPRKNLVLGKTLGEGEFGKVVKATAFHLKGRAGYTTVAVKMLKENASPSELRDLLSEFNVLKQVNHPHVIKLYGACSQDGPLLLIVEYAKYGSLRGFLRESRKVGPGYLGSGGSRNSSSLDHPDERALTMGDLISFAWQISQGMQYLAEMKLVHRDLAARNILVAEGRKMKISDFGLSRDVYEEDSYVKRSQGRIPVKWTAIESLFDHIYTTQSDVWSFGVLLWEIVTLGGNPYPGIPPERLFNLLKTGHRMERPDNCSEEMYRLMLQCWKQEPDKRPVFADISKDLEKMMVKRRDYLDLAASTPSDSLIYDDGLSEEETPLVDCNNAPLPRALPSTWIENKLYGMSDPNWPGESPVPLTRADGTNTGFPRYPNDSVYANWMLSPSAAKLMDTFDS

[8] = molecular target: Mitogen-activated protein kinase kinase kinase 2 (Homo sapiens) (UniProt Q9Y2U5); assay: Inhibition of MAP3K2 (unknown origin) assessed as remaining activity at 1 uM by Kinome scan method relative to control
[9] = molecular target: Serine/threonine-protein kinase TBK1 (Homo sapiens) (UniProt Q9UHD2); assay: Inhibition of human TBK1 assessed as residual activity at 1 uM using casein as substrate in presence of 33P-ATP by ProQinase assay relative to control
[10] = molecular target: Serine/threonine-protein kinase 38-like (Homo sapiens) (UniProt Q9Y2H1); assay: Inhibition of NDR2 (unknown origin) assessed as remaining activity at 1 uM by Kinome scan method relative to control
Serine/threonine-protein kinase 38-like (Homo sapiens), sequence (Q9Y2H1 2-464 limits assumed): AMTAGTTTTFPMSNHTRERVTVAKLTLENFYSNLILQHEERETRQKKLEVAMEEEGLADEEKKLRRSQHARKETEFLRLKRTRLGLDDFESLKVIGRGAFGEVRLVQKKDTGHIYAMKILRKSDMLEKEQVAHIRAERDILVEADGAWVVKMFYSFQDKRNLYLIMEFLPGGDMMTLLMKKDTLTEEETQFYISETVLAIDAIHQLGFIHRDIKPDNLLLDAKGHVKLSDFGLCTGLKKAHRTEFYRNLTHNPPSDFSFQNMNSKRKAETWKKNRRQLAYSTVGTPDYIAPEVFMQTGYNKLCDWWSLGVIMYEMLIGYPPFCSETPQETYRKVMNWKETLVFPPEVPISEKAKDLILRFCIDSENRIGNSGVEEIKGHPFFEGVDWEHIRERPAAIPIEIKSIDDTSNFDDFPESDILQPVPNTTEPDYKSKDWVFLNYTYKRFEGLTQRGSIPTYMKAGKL

[11] = tested on: Leucine-rich repeat serine/threonine-protein kinase 2 (Homo sapiens), Q5S007 [I2020T]; assay: Inhibition of human LRRK2 I2020T mutant assessed as residual activity at 1 uM using RBER-CHKtide as substrate in presence of 33P-ATP by ProQinase assay relative to control
[12] = molecular target: MAP kinase-activated protein kinase 3 (Homo sapiens) (UniProt Q16644); assay: Inhibition of human MAPKAPK3 assessed as residual activity at 1 uM using bio-4xCHKT as substrate in presence of 33P-ATP by ProQinase assay relative to control
MAP kinase-activated protein kinase 3 (Homo sapiens), sequence (Q16644 whole entry, looked up): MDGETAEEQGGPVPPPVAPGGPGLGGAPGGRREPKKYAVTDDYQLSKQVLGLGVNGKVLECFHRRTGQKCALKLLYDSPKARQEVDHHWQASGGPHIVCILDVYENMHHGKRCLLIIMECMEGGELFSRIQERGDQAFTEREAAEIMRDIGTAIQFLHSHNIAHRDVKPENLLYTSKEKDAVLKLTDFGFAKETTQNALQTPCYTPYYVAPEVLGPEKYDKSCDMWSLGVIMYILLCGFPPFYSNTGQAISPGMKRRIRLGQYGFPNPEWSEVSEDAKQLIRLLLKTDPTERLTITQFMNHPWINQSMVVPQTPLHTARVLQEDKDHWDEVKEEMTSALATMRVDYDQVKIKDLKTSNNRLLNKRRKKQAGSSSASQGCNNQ

[13] = molecular target: Receptor-interacting serine/threonine-protein kinase 2 (Homo sapiens) (UniProt O43353); assay: Inhibition of human RIPK2 assessed as residual activity at 1 uM using RBER-CHKtide as substrate in presence of 33P-ATP by ProQinase assay relative to control
Receptor-interacting serine/threonine-protein kinase 2 (Homo sapiens), sequence (O43353 whole entry): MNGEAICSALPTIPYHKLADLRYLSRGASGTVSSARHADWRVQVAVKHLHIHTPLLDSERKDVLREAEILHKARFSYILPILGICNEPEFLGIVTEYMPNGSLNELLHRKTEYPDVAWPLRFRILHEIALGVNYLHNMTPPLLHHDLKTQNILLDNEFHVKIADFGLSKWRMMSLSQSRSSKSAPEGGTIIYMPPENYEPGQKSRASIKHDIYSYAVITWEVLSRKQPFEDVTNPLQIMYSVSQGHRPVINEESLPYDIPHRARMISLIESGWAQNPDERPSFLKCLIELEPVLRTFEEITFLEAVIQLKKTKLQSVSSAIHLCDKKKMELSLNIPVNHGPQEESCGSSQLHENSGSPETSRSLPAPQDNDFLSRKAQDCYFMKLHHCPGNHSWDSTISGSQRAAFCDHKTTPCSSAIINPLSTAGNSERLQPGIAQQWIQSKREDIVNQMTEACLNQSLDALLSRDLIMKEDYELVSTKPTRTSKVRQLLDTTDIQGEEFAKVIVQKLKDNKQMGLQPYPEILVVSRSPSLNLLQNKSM

[14] = tested on: Epidermal growth factor receptor (Homo sapiens), P00533 [G719S]; assay: Inhibition of EGFR G719S mutant (unknown origin) assessed as remaining activity at 1 uM by Kinome scan method relative to control
[15] = tested on: Receptor-type tyrosine-protein kinase FLT3 (Homo sapiens), P36888 [K663Q]; assay: Inhibition of FLT3 K663Q mutant (unknown origin) assessed as remaining activity at 1 uM by Kinome scan method relative to control
[16] = tested on: Tyrosine-protein kinase ABL1 (Homo sapiens), P00519 [T315I]; assay: Inhibition of human ABL1 T315I mutant assessed as residual activity at 1 uM using Poly(Ala,Glu,Lys,Tyr)6:2:5:1 as substrate in presence of 33P-ATP by ProQinase assay relative to control
[17] = molecular target: Ribosomal protein S6 kinase alpha-2 (Homo sapiens) (UniProt Q15349); assay: Inhibition of human RPS6KA2 assessed as residual activity at 1 uM using bio-4xCHKT as substrate in presence of 33P-ATP by ProQinase assay relative to control
[18] = molecular target: Tyrosine-protein kinase receptor TYRO3 (Homo sapiens) (UniProt Q06418); assay: Inhibition of human TYRO3 assessed as residual activity at 1 uM using PolyEY as substrate in presence of 33P-ATP by ProQinase assay relative to control
[19] = tested on: Tyrosine-protein kinase ABL1 (Homo sapiens), P00519 [Q252H]; assay: Inhibition of human ABL1 Q252H mutant assessed as residual activity at 1 uM using Poly(Ala,Glu,Lys,Tyr)6:2:5:1 as substrate in presence of 33P-ATP by ProQinase assay relative to control
[20] = molecular target: Serine/threonine-protein kinase SIK3 (Homo sapiens) (UniProt Q9Y2K2); assay: Inhibition of QSK (unknown origin) assessed as remaining activity at 1 uM by Kinome scan method relative to control
Serine/threonine-protein kinase SIK3 (Homo sapiens), sequence (Q9Y2K2 whole entry, looked up): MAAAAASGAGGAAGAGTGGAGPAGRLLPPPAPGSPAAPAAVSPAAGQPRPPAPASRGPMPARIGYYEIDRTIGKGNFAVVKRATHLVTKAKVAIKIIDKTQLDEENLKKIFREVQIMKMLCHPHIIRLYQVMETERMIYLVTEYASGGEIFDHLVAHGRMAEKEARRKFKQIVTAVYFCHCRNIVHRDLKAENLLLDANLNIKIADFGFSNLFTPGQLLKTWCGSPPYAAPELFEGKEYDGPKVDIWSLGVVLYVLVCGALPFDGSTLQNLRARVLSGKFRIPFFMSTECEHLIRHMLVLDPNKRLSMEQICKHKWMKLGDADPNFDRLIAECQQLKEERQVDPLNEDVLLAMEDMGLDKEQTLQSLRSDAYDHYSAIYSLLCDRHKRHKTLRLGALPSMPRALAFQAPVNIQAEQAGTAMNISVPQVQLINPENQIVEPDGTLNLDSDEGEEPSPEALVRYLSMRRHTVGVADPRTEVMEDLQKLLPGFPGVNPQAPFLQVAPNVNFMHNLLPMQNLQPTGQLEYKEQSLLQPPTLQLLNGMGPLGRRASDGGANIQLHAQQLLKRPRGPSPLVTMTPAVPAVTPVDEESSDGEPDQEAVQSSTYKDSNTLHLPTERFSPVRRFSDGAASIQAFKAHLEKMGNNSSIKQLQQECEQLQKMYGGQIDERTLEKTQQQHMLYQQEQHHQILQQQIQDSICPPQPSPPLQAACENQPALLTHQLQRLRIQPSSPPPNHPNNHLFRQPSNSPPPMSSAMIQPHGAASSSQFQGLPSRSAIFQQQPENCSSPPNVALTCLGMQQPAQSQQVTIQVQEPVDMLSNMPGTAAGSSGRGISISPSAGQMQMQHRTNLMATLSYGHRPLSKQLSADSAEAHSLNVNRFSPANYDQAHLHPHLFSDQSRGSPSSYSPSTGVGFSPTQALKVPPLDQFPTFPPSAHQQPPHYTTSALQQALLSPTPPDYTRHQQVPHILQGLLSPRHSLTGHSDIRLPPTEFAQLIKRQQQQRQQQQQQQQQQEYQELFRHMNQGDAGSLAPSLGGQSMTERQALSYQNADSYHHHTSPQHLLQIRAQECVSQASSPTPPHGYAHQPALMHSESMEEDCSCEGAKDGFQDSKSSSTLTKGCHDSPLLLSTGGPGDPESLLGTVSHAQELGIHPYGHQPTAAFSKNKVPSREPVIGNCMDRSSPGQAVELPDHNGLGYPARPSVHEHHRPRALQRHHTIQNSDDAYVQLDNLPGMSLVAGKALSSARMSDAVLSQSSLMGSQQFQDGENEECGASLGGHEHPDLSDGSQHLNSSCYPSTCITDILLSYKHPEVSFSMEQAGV

[21] = molecular target: T1, MAP/microtubule affinity-regulating kinase 4 (Homo sapiens) (UniProt Q96L34); assay: Inhibition of human MARK4 assessed as residual activity at 1 uM using RBER-CHKtide as substrate in presence of 33P-ATP by ProQinase assay relative to control
T1 sequence (whole entry): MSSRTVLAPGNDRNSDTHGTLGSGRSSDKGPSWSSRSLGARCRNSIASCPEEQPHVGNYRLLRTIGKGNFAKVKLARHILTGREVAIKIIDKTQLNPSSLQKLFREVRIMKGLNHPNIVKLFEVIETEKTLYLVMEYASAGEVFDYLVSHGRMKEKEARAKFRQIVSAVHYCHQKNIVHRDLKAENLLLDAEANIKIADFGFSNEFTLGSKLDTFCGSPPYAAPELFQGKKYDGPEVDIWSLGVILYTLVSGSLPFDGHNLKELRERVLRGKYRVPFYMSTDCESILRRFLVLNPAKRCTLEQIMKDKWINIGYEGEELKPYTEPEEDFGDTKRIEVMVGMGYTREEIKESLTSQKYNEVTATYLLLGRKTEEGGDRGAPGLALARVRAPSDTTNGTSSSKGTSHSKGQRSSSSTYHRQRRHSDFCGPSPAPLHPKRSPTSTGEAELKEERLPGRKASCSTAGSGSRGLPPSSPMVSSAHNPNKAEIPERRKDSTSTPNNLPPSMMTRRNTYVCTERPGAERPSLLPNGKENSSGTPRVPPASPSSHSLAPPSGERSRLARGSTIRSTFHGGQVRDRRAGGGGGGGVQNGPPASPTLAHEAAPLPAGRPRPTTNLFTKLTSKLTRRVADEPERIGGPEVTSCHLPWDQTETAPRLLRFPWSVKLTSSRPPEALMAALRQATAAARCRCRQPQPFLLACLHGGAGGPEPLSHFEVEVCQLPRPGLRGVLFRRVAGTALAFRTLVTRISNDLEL

Calcium/calmodulin-dependent protein kinase kinase 1 (Homo sapiens), sequence (Q8N5S9 whole entry, looked up): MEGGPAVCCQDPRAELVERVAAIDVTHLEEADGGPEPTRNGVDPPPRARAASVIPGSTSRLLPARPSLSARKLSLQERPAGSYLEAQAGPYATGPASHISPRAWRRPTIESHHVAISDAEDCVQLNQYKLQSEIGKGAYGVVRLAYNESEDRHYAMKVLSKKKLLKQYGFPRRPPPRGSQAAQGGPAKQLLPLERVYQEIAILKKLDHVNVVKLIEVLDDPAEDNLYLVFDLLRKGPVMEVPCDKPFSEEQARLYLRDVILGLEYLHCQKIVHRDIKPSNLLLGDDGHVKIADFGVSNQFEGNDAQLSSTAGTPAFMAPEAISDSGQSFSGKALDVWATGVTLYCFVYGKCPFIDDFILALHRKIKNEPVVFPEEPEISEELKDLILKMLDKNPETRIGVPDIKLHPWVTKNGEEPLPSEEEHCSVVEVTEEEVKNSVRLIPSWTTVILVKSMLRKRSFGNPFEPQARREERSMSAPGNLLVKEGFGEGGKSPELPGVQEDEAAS

## O=C1c2ccc(Nc3ccc(F)cc3F)cc2CCc2ccc(OC[C@H](O)CO)cc21 [Skepinone-L]
[1]
  Activity: 100%
[2]
  Activity: 100%
[3]
  Activity: 88%
[4]
  Activity: 100%
[5]
  Activity: 98%
[6]
  Activity: 100%
[7]
  Activity: 100%
[8]
  Activity: 100%
[9]
  Activity: 87%
[10]
  Activity: 100%
[11]
  Activity: 94%
[12]
  Activity: 95%
[13]
  Activity: 77%
[14]
  Activity: 94%
[15]
  Activity: 98%
[16]
  Activity: 93%
[17]
  Activity: 90%
[18]
  Activity: 108%
[19]
  Activity: 95%
[20]
  Activity: 100%
[21]
  Activity: 96%

Source: ChEMBL document CHEMBL5696441 (Nat Chem Biol, 2011)
